Reference: US12667551B2, “Renal function maintenance and protection agent, and method for evaluating effect thereof” (MARUHA NICHIRO CORPORATION, priority 2018, dated 2026)
Marks after values point to notes of the source that are not given here.

Tests used:
[1] = system: diabetic disease model animals; conditions: Non-Patent Document 4; cited from earlier work
[2] = system: spontaneously hypertensive stroke-prone rats (SHR-SP/Izm); test: Serum and urine biochemical tests, comparison of DHA-bound TG and EE (Example 3); format: in vivo, rat; conditions: H-DHA-TG 2,000, DHA-EE 1,303, Tri-DHA-TG 1,246 mg/kg once a day gavage, 4 weeks; for Urine Alb / Urine Alb/CRE / Urine TP: median
Procedure: (§1) Spontaneously hypertensive stroke-prone rats (SHR-SP/Izm, Nihon SLC Co., Ltd.) aged 4 weeks were acclimatized for 1 week, then fed an 8-mass % salt-containing solid diet (AlN-93G) and a drinking water freely, and once a day, DHA highly enriched triglycerides (H-DHA-TG), esters (DHA-EE) used in Example 2, and triglycerides (Tri-DHA-TG) prepared in Example 2 were administered by gavage with the amounts shown in Table 3,
(§2) In addition, urine samples were collected before the start of administration and after 4 weeks of administration under fasting for 16 hours, and biochemical tests and metabolite analysis by NMR were performed by conventional methods.
At the end of the test, blood was collected from the abdominal vena cava and necropsied.
Biochemical metabolite analysis was performed on the obtained serum by conventional methods.

[3] = system: spontaneously hypertensive stroke-prone rats (SHR-SP/Izm); test: Kidney pathology scores GSI and AIS (Example 3); format: in vivo, rat; conditions: H-DHA-TG 2,000, DHA-EE 1,303, Tri-DHA-TG 1,246 mg/kg once a day gavage, 4 weeks, group average
Procedure: as §1
The kidneys were fixed in formalin solution, and then each staining was performed by PAS-staining, Sirius-Red-staining, and immunostaining for α-SMA, CD68, Desmin, and Kim−1 for pathological observations.
For PAS-staining, along with pathomorphological observations, glomerulosclerosis score (GSI), renal artery injury score (AIS) were performed with reference to Clinical and Experimental Hypertension, 2012, 34 (2) 99-106.

[4] = system: spontaneously hypertensive stroke-prone rats (SHR-SP/Izm); test: Urine metabolite analysis by NMR (Example 3); format: in vivo, rat; conditions: for Urine metabolic concentration: 4-Hydroxyphenylacetate / Urine metabolic concentration: Glycine / Urine metabolic concentration: N-Phenylacetylglycine / Urine metabolic concentration: Creatinine: Example 3, H-DHA-TG 2,000, DHA-EE 1,303, Tri-DHA-TG 1,246 mg/kg, 4 weeks; for Urine metabolic concentration: Creatinine: normaliser
Procedure: as §1, §2

[5] = system: salt-sensitive spontaneously hypertensive stroke-prone rats; conditions: Non-Patent Documents 1 and 2; cited from earlier work

Compound | Blood glucose levels [1] | Serum BUN [2] [mg/dL] | Serum CRE [2] [mg/dL] | Urine CRE [2] [mg/16 h] | Urine Alb [2] | Urine Alb/CRE [2] | Urine TP [2] | AIS (renal artery injury score) [3] | GSI (glomerulosclerosis score) [3] | Significant differences of urine metabolites vs control, triglycerides compared with esters ([4]; Example 3, Table 6) | Urine metabolic concentration: 4-Hydroxyphenylacetate [4] | Urine metabolic concentration: Glycine [4] | Urine metabolic concentration: N-Phenylacetylglycine [4] | Urine metabolic concentration: Creatinine [4] | Renal function protection [5]
triglycerides of DHA [DHA-TAG] | lowered blood glucose levels to the same extent as control |  |  |  |  |  |  |  |  |  |  |  |  |  | 
CC/C=C\C/C=C\C/C=C\C/C=C\C/C=C\C/C=C\CCC(=O)OCC(COC(=O)CC/C=C\C/C=C\C/C=C\C/C=C\C/C=C\C/C=C\CC)OC(=O)CC/C=C\C/C=C\C/C=C\C/C=C\C/C=C\C/C=C\CC [Tri-DHA-TG, tridocosahexaenoyl triglyceride] |  | 25.1 ± 4.2 | 0.28 ± 0.06 | 3.02 ± 0.47 | 544.95^† ug/16 h | 1.85^† | 3.2^† mg/16 h | 21.1 | 11.4 | more significant differences | 0.12 ± 0.04 (μM)/Cre(μM) | 0.19 ± 0.03 (μM)/Cre(μM) | 0.42 ± 0.08 (μM)/Cre(μM) | 1.00 ± 0.00 (μM)/Cre(μM) | 
triglycerides of EPA [EPA-TAG] | no effect was observed |  |  |  |  |  |  |  |  |  |  |  |  |  | 
CC/C=C\C/C=C\C/C=C\C/C=C\C/C=C\C/C=C\CCC(=O)OCC [DHA-EE, ethyl esters of docosahexaenoic acid] | lowered blood glucose levels to the same extent as control | 25.1 ± 3.7 | 0.28 ± 0.04 | 3.23 ± 0.59 | 1054 ug/16 h | 4.44^† | 3.2 mg/16 h | 19.4 | 7.1 |  | 0.09 ± 0.03 (μM)/Cre(μM) | 0.18 ± 0.04 (μM)/Cre(μM) | 0.34 ± 0.09 (μM)/Cre(μM) | 1.00 ± 0.00 (μM)/Cre(μM) | renal function was protected
CC/C=C\C/C=C\C/C=C\C/C=C\C/C=C\CCCC(=O)OCC [EPA-EE, ethyl esters of eicosapentaenoic acid] | no effect was observed |  |  |  |  |  |  |  |  |  |  |  |  |  | renal function was protected
